Test results from patent US7538123B2, “Indole derivative having piperidine ring” (Eisai R & D Management Co., Ltd., priority 2004, dated 2009).
Like-named read-outs stand apart in the source and are kept apart here.

Target: T1, serotonin 1A receptor (Mus musculus, UniProt Q64264)
T1 construct: into the rectum of CD-1 (ICR) male mice (25-45 g); from tissue; host or cells: living CD-1 (ICR) male mice (whole animal)
T1 sequence (Q64264 1-421): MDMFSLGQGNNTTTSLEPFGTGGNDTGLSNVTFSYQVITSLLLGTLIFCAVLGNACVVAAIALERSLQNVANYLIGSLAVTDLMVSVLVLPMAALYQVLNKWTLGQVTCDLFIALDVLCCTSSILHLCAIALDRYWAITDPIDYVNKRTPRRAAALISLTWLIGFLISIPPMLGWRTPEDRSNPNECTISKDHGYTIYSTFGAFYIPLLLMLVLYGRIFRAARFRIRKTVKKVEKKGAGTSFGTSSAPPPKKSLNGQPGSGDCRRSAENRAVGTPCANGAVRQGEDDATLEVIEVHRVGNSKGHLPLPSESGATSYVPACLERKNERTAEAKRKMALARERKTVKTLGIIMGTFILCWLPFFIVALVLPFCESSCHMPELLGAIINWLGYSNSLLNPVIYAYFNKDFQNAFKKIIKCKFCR
Test: Antagonistic effect on serotonin 1A receptor agonist-induced hypothermia in mouse
Format: in vivo
Details: sc
Description: (1) A thermistor probe was inserted at a depth of approximately 2 cm into the rectum of CD-1 (ICR) male mice (25-45 g), so as to measure the body temperature thereof. Body temperature is decreased by subcutaneous administration of serotonin 1A receptor agonist (8-hydroxy-dipropylaminotetralin) 0.5 mg/kg. Since a serotonin 1A antagonist inhibits such action, the antagonistic effect of a test substance to a serotonin 1A receptor was evaluated using the inhibitory effect of the hypothermia as an index. A test substance was administered 15 minutes before the administration of the serotonin 1A agonist. A serotonin 1A partial agonist alone decreases the body temperature, depending on the degree of the agonistic action thereof. In addition, it has a weak antagonistic effect on 8-hydroxy-dipropylaminotetralin-induced hypothermia. (2) Results

[1] = 15 minutes before 8-hydroxy-dipropylaminotetralin 0.5 mg/kg sc, inhibition of hypothermia, CD-1 (ICR) male mice, read-out: ED50

SMILES	ED50 [1] [mg/kg]	ED50 [mg/kg]
COc1ccc2oc(C)nc2c1CCN1CCC(n2ccc3ccc(C(N)=O)cc32)CC1 [Compound 7, 1-{1-[2-(5-methoxy-2-methylbenzoxazol-4-yl)ethyl]piperidin-4-yl}-1H-indole-6-carboxamide]	0.38	–
COc1ccc2c(c1CCN1CCC(n3ccc4ccc(C(N)=O)cc43)CC1)OC(C)(C)CC2=O [Compound 22, 1-{1-[2-(7-methoxy-2,2-dimethyl-4-oxochroman-8-yl)ethyl]piperidin-4-yl}-1H-indole-6-carboxamide]	0.1	–
COc1ccc2c(=O)ccoc2c1CCN1CCC(n2ccc3ccc(C(N)=O)cc32)CC1 [Compound 35, 1-{1-[2-(7-methoxy-4-oxo-4H-chromen-8-yl)ethyl]piperidin-4-yl}-1H-indole-6-carboxamide]	0.2	–
COc1ccc2ncccc2c1CCN1CCC(n2ccc3ccc(C(N)=O)cc32)CC1 [Compound 30, 1-{1-[2-(6-methoxyquinolin-5-yl)ethyl]piperidin-4-yl}-1H-indole-6-carboxamide]	0.62	–
COc1ccc2c(c1CCN1CCC(n3ccc4ccc(C(N)=O)cc43)CC1)OCCC2O (stereo not drawn) [Compound 46, 1-{1-[2-(4-hydroxy-7-methoxychroman-8-yl)ethyl]piperidin-4-yl}-1H-indole-6-carboxamide]	0.3	–
CCc1nc2ccc(OC)c(CCN3CCC(n4ccc5ccc(C(N)=O)cc54)CC3)c2o1 [Compound 5]	0.24	–
COc1ccc2c(=O)c(C)c(C)oc2c1CCN1CCC(n2ccc3ccc(C(N)=O)cc32)CC1 [Compound 36, 1-{1-[2-(7-methoxy-2,3-dimethyl-4-oxo-4H-chromen-8-yl)ethyl]piperidin-4-yl}-1H-indole-6-carboxamide]	0.2	–
COc1ccc2c(C)noc2c1CCN1CCC(n2ccc3ccc(C(N)=O)cc32)CC1 [Compound 1, 1-{1-[2-(6-methoxy-3-methylbenz[d]isoxazol-7-yl)ethyl]piperidin-4-yl}-1H-indole-6-carboxamide]	–	0.3
CNC(=O)c1ccc2ccn(C3CCN(CCc4c(OC)ccc5c4OC(C)(C)CC5O)CC3)c2c1 (stereo not drawn) [Compound 48, 1-{1-[2-(4-hydroxy-7-methoxy-2,2-dimethylchroman-8-yl)ethyl]piperidin-4-yl}-N-methyl-1H-indole-6-carboxamide]	–	0.06
COc1ccc2c(c1CCN1CCC(n3ccc4ccc(C(N)=O)cc43)CC1)CCCN2C(C)=O [Compound 54, 1-{1-[2-(1-acetyl-6-methoxy-1,2,3,4-tetrahydroquinolin-5-yl)ethyl]piperidin-4-yl}-1H-indole-6-carboxamide]	0.84	–
COc1ccc2c(c1CCN1CCC(n3ccc4ccc(C(N)=O)cc43)CC1)CCC2O (stereo not drawn) [Compound 49, 1-{1-[2-(1-hydroxy-5-methoxyindan-4-yl)ethyl]piperidin-4-yl}-1H-indole-6-carboxamide]	0.28	–
COc1cc2cccnc2cc1CCN1CCC(n2ccc3ccc(C(N)=O)cc32)CC1 [Compound 51, 1-{1-[2-(6-methoxyquinolin-7-yl)ethyl]piperidin-4-yl}-1H-indole-6-carboxamide]	–	0.66
COc1ccc2sc(C)nc2c1CCN1CCC(n2ccc3ccc(C(N)=O)cc32)CC1 [Compound 27, 1-{1-[2-(5-methoxy-2-methylbenzothiazol-4-yl)ethyl]piperidin-4-yl}-1H-indole-6-carboxamide]	0.42	–
COc1ccc2nc(C)oc2c1CCN1CCC(n2ccc3ccc(C(N)=O)cc32)CC1 [Compound 3, 1-{1-[2-(6-methoxy-2-methylbenzoxazol-7-yl)ethyl]piperidin-4-yl}-1H-indole-6-carboxamide]	0.18	–
COc1ccc2ccccc2c1CCN1CCC(n2ccc3ccc(C(N)=O)cc32)CC1 [Compound 44, 1-{1-[2-(2-methoxynaphthalen-1-yl)ethyl]piperidin-4-yl}-1H-indole-6-carboxamide]	0.41	–

Second part, led by results:

ED50 [1] [mg/kg]	SMILES	ED50 [mg/kg]
0.3	COc1cc2c(cc1CCN1CCC(n3ccc4ccc(C(N)=O)cc43)CC1)C(=O)N(C)CCO2 [Compound 9, 1-{1-[2-(8-methoxy-4-methyl-5-oxo-2,3,4,5-tetrahydrobenzo[f][1,4]oxazepin-7-yl)ethyl]piperidin-4-yl}-1H-indole-6-carboxamide]	–
0.1	COc1cc2oc(C)nc2cc1CCN1CCC(n2ccc3ccc(C(N)=O)cc32)CC1 [Compound 4, 1-{1-[2-(6-methoxy-2-methylbenzoxazol-5-yl)ethyl]piperidin-4-yl}-1H-indole-6-carboxamide]	–
0.04	COc1cc2c(cc1CCN1CCC(n3ccc4ccc(C(N)=O)cc43)CC1)OCCO2 [Compound 31, 1-{1-[2-(7-methoxy-2,3-dihydrobenz[1,4]dioxin-6-yl)ethyl]piperidin-4-yl}-1H-indole-6-carboxamide]	–
0.02	COc1cc2nc(C)sc2cc1CCN1CCC(n2ccc3ccc(C(N)=O)cc32)CC1 [Compound 28, 1-{1-[2-(5-methoxy-2-methylbenzothiazol-6-yl)ethyl]piperidin-4-yl}-1H-indole-6-carboxamide]	–
0.5	COc1cc2c(cc1CCN1CCC(n3ccc4ccc(C(N)=O)cc43)CC1)N(C(C)=O)CCC2 [Compound 52, 1-{1-[2-(1-acetyl-6-methoxy-1,2,3,4-tetrahydroquinolin-7-yl)ethyl]piperidin-4-yl}-1H-indole-6-carboxamide]	–
0.52	CCn1c(=O)oc2cc(OC)c(CCN3CCC(n4ccc5ccc(C(N)=O)cc54)CC3)cc21 [Compound 60, 1-{1-[2-(3-ethyl-6-methoxy-2-oxo-2,3-dihydrobenzoxazol-5-yl)ethyl]piperidin-4-yl}-1H-indole-6-carboxamide]	–
0.3	COc1cc2c(cc1CCN1CCC(n3ccc4ccc(C(N)=O)cc43)CC1)C(=O)CC(C)(C)O2 [Compound 24, 1-{1-[2-(7-methoxy-2,2-dimethyl-4-oxochroman-6-yl)ethyl]piperidin-4-yl}-1H-indole-6-carboxamide]	–
0.07	COc1cc2nc(C)oc2cc1CCN1CCC(n2ccc3ccc(C(N)=O)cc32)CC1 [Compound 8, 1-{1-[2-(5-methoxy-2-methylbenzoxazol-6-yl)ethyl]piperidin-4-yl}-1H-indole-6-carboxamide]	–
0.4	COc1cc2onc(C)c2cc1CCN1CCC(n2ccc3ccc(C(N)=O)cc32)CC1 [Compound 2, 1-{1-[2-(6-methoxy-3-methylbenzo[d]isoxazol-5-yl)ethyl]piperidin-4-yl}-1H-indole-6-carboxamide]	–
0.37	COc1ccc2c(c1CCN1CCC(n3ccc4ccc(C(N)=O)cc43)CC1)CCN(C)C2=O [Compound 34, 1-(1-(2-(6-methoxy-2-methyl-1-oxo-1,2,3,4-tetrahydroisoquinolin-5-yl)ethyl)piperidin-4-yl)-1H-indole-6-carboxamide]	–
0.04	COc1ccc2c(c1CCN1CCC(n3ccc4ccc(C(N)=O)cc43)CC1)OCCO2 [Compound 32, 1-{1-[2-(6-methoxy-2,3-dihydrobenz[1,4]dioxin-5-yl)ethyl]piperidin-4-yl}-1H-indole-6-carboxamide]	–
0.12	COc1cc2c(cc1CCN1CCC(n3ccc4ccc(C(N)=O)cc43)CC1)C(=O)N(C)CC2 [Compound 33, 1-{1-[2-(6-methoxy-2-methyl-1-oxo-1,2,3,4-tetrahydroisoquinolin-7-yl)ethyl]piperidin-4-yl}-1H-indole-6-carboxamide]	–
0.3	COc1cc2c(cc1CCN1CCC(n3ccc4ccc(C(N)=O)cc43)CC1)N(C)CCC2 [Compound 53, 1-{1-[2-(6-methoxy-1-methyl-1,2,3,4-tetrahydroquinolin-7-yl)ethyl]piperidin-4-yl}-1H-indole-6-carboxamide]	–
0.1	COc1cc2c(cc1CCN1CCC(n3ccc4ccc(C(N)=O)cc43)CC1)N(C)C(=O)CC2 [Compound 57, 1-{1-[2-(6-methoxy-1-methyl-2-oxo-1,2,3,4-tetrahydroquinolin-7-yl)ethyl]piperdin-4-yl}-1H-indole-6-carboxamide]	–
0.35	CCc1nc2cc(CCN3CCC(n4ccc5ccc(C(N)=O)cc54)CC3)c(OC)cc2o1 [Compound 6, 1-{1-[2-(2-ethyl-6-methoxybenzoxazol-5-yl)ethyl]piperidin-4-yl}-1H-indole-6-carboxamide]	–
0.21	COc1ccc2c(c1CCN1CCC(n3ccc4ccc(C(N)=O)cc43)CC1)OCCC2=O [Compound 47, 1-{1-[2-(7-methoxy-4-oxochroman-8-yl)ethyl]piperidin-4-yl}-1H-indole-6-carboxamide]	–
0.53	CNC(=O)c1ccc2ccn(C3CCN(CCc4cc5c(cc4OC)CCC(=O)N5C)CC3)c2c1 [Compound 58, 1-{1-[2-(6-methoxy-1-methyl-2-oxo-1,2,3,4-tetrahydroquinolin-7-yl)ethyl]piperidin-4-yl}-N-methyl-1H-indole-6-carboxamide]	–
0.3	CCN1C(=O)CCc2cc(OC)c(CCN3CCC(n4ccc5ccc(C(N)=O)cc54)CC3)cc21 [Compound 59, 1-{1-[2-(1-ethyl-6-methoxy-2-oxo-1,2,3,4-tetrahydroquinolin-7-yl)ethyl]piperidin-4-yl}-1H-indole-6-carboxamide]	–
